Test results as given in patent publication US20030088061A1, “Materials and methods to modulate ligand binding/enzymatic activity of alpha/beta proteins containing an allosteric regulatory site” (priority 2000, published 2003).

Assays:
[1] = target: T1, αVβ3 (Homo sapiens, UniProt P05106+P06756); assay: JY/αVβ3 cell adhesion to vitronectin; type: cell-based; settings: PMA-treated JY cells; read-out: VN αVβ3 IC50
T1 construct: endogenous in cells; host or cells: JY cells
Description: (§1) To assess the selectivity of each compound, an IC50 value was determined for additional binding partner compounds JY/αVβ3 and vitronectin, JY/α4β1 and VCAM/Ig, JY/αdβ2 and VCAM, JY/[…] and ICAM-1, JY/αMβ2 and iC3b, and JY/α4β7 and MAdCAM-1.
(§2) For each IC50 assay, 50 μl of the ligand diluted in 50 mM bicarbonate buffer (pH 9.6) was dispensed per well of an Immulon-4 plate. A single plate was used to test two different ligands, each in triplicate, The coating concentration for the various ligands was as follows: VCAM-1/Ig at 2.0 μg/ml; ICAM-1/Ig at 5.0 μg/ml; vitronectin at 0.5 μg/ml; MAdCAM-1/Ig at 3.0 μg/ml, and iC3b at 5.0 μg/ml. The capture antibody, e.g. anti-CD18 monoclonal antibody TS1/22, was added at a concentration of 10 μg/ml in 50 μl/well. Ligand-coated plates were covered and stored overnight at 4° C. The following day, the contents of each well was decanted, and each plate was washed three times with 200 μl/well D-PBS. The plate was then blocked by the addition of 300 μl/well of 1% BSA/D-PBS solution. Each plate was again covered and incubated at room temperature for at least 1 hour.
Prior to transfer to the adhesion plate, the compounds were initially diluted by transferring 4.2 μl of the diluted compounds to a 96-well deepwell titer plate containing 0.7 ml/well of RPMI 1640, 0.1% BSA, and 3 ng/ml PMA (Sigma Corp., St. Louis, Mo.) pre-warmed to 37° C. The 1% BSA/D-PBS blocking solution was decanted from the 96-well Immulon-4 plates and replaced with 0.2 ml of diluted compound. […]
(§3) The adhesion assay was initiated by addition of 100 μl of the cell suspension to each well of the Immulon-4 plate. […] Adherent cells were quantitated by determining the absorbance at 570 nm in a plate spectrophotometer. The percentage of cell binding was determined by using the mean values for each triplicate in a given assay and the formula below. […]
(§4) The four compounds Cmpd K, Cmpd W, Cmpd Z, Cmpd D identified in the primary screen were selected for further specificity profiling, whereby their IC50 values were determined in additional integrin-dependent adhesive events. […]

[2] = target: α4β1 (Homo sapiens, UniProt P05556+P13612); assay: JY/α4β1 cell adhesion to VCAM-1/Ig; type: cell-based; set-up: host or cells: JY cells; settings: PMA-treated JY cells
Description: as §1, §2
Prior to transfer to the adhesion plate, the compounds were initially diluted by transferring 4.2 μl of the diluted compounds to a 96-well deepwell titer plate containing 0.7 ml/well of RPMI 1640, 0.1% BSA, and 3 ng/ml PMA (Sigma Corp., St. Louis, Mo.) pre-warmed to 37° C. The 1% BSA/D-PBS blocking solution was decanted from the 96-well Immulon-4 plates and replaced with 0.2 ml of diluted compound. For each 96-well plate to be screened, approximately 8×10^6 cells were collected by centrifugation and resuspended in adhesion media (RPMI 1640 containing 0.1% BSA) to a final concentration of 10^6/ml. To prevent PMA-dependent homotypic aggregation in the adhesion assay, the anti-CD18 antibody 22F12C (ICOS Corp., Bothell, Wash.) was added to the cell suspensions to a final concentration of 10 μg/ml, and the cells were incubated at 37° C. for 15 min. This antibody was not added to CD18-dependent adhesion assays involving JY/αLβ2, JY/αdβ2 or JY/αMβ2 and their corresponding ligands ICAM-1, VCAM-1, or iC3b.
as §3, §4

T1 sequence (P06756 31-889 limits assumed): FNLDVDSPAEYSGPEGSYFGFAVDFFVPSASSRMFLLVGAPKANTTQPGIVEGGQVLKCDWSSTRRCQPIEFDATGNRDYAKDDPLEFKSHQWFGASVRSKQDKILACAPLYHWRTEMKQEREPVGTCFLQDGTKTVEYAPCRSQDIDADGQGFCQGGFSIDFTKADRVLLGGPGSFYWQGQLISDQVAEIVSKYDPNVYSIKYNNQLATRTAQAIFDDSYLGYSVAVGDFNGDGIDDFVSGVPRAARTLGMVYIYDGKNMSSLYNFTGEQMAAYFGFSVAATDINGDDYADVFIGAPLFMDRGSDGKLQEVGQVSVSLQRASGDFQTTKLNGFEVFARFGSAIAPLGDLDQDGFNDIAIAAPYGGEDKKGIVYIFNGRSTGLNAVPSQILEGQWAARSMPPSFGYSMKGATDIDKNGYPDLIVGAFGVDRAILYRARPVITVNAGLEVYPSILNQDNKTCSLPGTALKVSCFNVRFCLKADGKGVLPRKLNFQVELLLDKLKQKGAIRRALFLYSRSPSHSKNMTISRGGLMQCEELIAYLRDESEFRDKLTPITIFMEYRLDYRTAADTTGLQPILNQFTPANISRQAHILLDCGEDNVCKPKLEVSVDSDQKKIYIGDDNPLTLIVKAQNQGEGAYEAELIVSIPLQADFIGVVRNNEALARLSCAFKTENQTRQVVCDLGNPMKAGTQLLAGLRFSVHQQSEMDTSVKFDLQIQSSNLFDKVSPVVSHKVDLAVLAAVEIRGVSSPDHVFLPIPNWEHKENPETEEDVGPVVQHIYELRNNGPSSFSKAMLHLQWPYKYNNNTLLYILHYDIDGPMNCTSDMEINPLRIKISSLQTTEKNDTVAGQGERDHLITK
T1 sequence (P06756 891-1048 partner limits assumed): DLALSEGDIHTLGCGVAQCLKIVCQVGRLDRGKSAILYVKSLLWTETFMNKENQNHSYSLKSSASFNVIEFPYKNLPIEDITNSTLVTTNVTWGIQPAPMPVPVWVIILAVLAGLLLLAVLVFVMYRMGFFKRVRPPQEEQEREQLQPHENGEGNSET
T1 sequence (P05106 27-788): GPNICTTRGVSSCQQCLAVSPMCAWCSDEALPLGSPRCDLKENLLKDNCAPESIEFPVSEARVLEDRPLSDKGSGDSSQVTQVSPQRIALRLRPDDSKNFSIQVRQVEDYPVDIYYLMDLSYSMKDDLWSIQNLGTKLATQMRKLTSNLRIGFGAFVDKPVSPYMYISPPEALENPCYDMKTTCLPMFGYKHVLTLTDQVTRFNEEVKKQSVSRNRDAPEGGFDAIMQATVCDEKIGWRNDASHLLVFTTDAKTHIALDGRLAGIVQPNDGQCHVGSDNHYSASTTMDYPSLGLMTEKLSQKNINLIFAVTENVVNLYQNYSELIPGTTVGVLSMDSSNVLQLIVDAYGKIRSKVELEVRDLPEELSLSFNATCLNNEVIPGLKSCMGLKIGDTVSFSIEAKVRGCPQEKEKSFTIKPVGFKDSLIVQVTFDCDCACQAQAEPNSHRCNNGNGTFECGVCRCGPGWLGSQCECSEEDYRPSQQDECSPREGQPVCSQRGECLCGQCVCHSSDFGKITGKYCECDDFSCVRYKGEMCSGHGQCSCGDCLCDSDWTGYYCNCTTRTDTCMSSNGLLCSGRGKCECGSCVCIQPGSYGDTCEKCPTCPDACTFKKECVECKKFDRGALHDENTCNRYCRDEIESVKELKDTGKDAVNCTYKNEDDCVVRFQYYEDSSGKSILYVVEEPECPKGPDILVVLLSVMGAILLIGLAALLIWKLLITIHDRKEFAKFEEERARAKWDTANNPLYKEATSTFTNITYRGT
Sequence of α4β1 (P13612 34-1032): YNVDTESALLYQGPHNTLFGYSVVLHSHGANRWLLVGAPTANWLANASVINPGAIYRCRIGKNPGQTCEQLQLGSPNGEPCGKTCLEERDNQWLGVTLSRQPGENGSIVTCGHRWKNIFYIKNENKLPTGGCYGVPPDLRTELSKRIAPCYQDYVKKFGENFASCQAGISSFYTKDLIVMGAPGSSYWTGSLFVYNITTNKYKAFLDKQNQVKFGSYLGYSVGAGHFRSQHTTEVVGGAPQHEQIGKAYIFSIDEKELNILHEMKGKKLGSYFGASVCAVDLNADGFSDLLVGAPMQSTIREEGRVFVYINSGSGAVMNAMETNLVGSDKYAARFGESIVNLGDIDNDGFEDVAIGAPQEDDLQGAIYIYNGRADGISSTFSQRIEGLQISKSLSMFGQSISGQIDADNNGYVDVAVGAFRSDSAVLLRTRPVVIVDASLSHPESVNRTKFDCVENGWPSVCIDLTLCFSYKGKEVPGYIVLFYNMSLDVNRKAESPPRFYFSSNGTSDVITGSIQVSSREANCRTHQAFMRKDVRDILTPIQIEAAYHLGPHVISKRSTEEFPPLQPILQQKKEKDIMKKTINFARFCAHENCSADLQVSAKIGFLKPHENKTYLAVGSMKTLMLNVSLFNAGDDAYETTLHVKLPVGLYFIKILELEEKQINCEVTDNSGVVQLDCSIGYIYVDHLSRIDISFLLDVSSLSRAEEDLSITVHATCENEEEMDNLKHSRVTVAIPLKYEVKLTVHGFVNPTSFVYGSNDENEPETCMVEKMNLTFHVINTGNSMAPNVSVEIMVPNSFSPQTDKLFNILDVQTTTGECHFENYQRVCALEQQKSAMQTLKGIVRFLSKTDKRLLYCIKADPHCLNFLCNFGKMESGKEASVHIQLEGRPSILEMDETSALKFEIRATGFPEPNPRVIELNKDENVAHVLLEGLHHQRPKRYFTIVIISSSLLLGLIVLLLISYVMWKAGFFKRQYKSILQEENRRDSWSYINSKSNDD
Sequence of α4β1 (P05556 21-798): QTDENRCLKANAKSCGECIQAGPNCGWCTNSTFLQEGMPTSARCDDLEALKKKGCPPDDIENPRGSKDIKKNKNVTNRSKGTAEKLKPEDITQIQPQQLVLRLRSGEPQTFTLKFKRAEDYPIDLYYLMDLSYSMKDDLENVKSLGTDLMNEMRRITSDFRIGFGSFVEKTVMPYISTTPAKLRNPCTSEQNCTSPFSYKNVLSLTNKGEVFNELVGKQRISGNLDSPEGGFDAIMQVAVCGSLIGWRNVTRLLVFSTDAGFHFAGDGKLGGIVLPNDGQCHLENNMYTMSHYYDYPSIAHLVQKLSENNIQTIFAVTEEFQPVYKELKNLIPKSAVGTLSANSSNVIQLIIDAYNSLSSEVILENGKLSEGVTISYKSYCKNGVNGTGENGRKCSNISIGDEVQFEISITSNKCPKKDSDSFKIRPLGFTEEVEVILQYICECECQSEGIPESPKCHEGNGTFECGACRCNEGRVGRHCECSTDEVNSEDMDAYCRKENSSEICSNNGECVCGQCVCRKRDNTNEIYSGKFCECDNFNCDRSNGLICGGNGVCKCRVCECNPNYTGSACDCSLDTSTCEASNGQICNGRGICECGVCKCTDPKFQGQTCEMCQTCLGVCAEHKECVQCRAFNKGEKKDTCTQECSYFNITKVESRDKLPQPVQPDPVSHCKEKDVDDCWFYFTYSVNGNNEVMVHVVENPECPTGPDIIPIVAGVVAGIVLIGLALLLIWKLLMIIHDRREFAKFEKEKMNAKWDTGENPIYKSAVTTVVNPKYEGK

| IC50 [1] | IC50 [2] | SMILES |
| --- | --- | --- |
| 6 µM | > 40 µM | O=C(NCc1cccnc1)c1ccccc1C(=O)Nc1sc2ccccc2c1Cl [Cmpd K] |
|  | > 40 µM | CC(CN(C)C)NCc1ccccc1Sc1ccc(C(C)(C)C)cc1 (stereo not shown) [Cmpd Z] |
| 4 µM | > 40 µM | CC(=O)Oc1ccccc1C(=O)n1c(-c2ccccc2)cc2ccccc21 [Cmpd D] |
| 8 µM | > 40 µM | Nc1ccc(Sc2ccc(NC(=O)CCc3ccccc3)cc2)c(Cl)c1 [Cmpd W] |
